Test results reported in PubChem BioAssay AID248 (DTP/NCI, 2004).
Where “and” joins values, the source holds several entries; their conditions need not be identical. Identical values can stand only once. Toxic doses and inconclusive results are not listed. No stated cut-off is given here; in the data, active means T/C of 150% or more; inactive means T/C below 125%.

System: L1210 leukemia ip in BDF1 mice, survival T/C
Test: NCI In Vivo Anticancer Drug Screen. Data for tumor model L1210 Leukemia (intraperitoneal) in B6D2F1 (BDF1) mice
Settings: endpoint: mean survival time, higher = longer survival
Procedure, shortened: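 Read-out is survival time, reported as the treated-group measurement over the vehicle-control measurement.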

[1] = dose: 100.0 mg/kg/injection, schedule: Q01DX009 (ip), vehicle: Klucel (hydroxypropylcellulose) (HPC)
[2] = dose: 100.0 mg/kg/injection, schedule: Q04DX003 (ip), vehicle: Klucel (hydroxypropylcellulose) (HPC)
[3] = dose: 200.0 mg/kg/injection, schedule: Q01DX009 (ip), vehicle: Klucel (hydroxypropylcellulose) (HPC)
[4] = dose: 200.0 mg/kg/injection, schedule: Q04DX003 (ip), vehicle: Klucel (hydroxypropylcellulose) (HPC)
[5] = dose: 400.0 mg/kg/injection, schedule: Q01DX009 (ip), vehicle: Klucel (hydroxypropylcellulose) (HPC)
[6] = dose: 400.0 mg/kg/injection, schedule: Q04DX003 (ip), vehicle: Klucel (hydroxypropylcellulose) (HPC)
[7] = dose: 100.0 mg/kg/injection, schedule: Q04DX002 (ip), vehicle: Klucel (hydroxypropylcellulose) (HPC)
[8] = dose: 100.0 mg/kg/injection, schedule: Q01DX009 (ip), vehicle: saline with Tween-80
[9] = dose: 100.0 mg/kg/injection, schedule: Q01DX009 (ip), vehicle: saline
[10] = dose: 100.0 mg/kg/injection, schedule: Q04DX003 (ip), vehicle: saline
[11] = dose: 200.0 mg/kg/injection, schedule: Q01DX009 (ip), vehicle: saline with Tween-80
[12] = dose: 200.0 mg/kg/injection, schedule: Q01DX009 (ip), vehicle: saline
[13] = dose: 200.0 mg/kg/injection, schedule: Q04DX003 (ip), vehicle: saline
[14] = dose: 400.0 mg/kg/injection, schedule: Q01DX009 (ip), vehicle: saline
[15] = dose: 400.0 mg/kg/injection, schedule: Q04DX003 (ip), vehicle: saline
[16] = dose: 100.0 mg/kg/injection, schedule: Q01DX001 (ip), vehicle: saline
[17] = dose: 200.0 mg/kg/injection, schedule: Q01DX001 (ip), vehicle: saline
[18] = dose: 400.0 mg/kg/injection, schedule: Q01DX001 (ip), vehicle: saline
[19] = dose: 12.5 mg/kg/injection, schedule: Q04DX002 (ip), vehicle: Klucel (hydroxypropylcellulose) (HPC)
[20] = dose: 25.0 mg/kg/injection, schedule: Q04DX002 (ip), vehicle: Klucel (hydroxypropylcellulose) (HPC)
[21] = dose: 100.0 mg/kg/injection, schedule: Q04DX002 (ip), vehicle: saline with Tween-80
[22] = dose: 200.0 mg/kg/injection, schedule: Q04DX002 (ip), vehicle: saline with Tween-80
[23] = dose: 400.0 mg/kg/injection, schedule: Q04DX002 (ip), vehicle: saline with Tween-80
[24] = dose: 75.0 mg/kg/injection, schedule: Q01DX001 (ip), vehicle: saline
[25] = dose: 50.0 mg/kg/injection, schedule: Q01DX001 (ip), vehicle: carboxymethylcellulose (CMC)

Measured: T/C

COc1ccc(C(OC2OC(n3cnc4c(=S)nc(N)[nH]c43)CC2OC(C)=O)(c2ccccc2)c2ccc(OC)cc2)cc1 (configuration not stated)
inactive: [1] 97 % of control | [2] 101 % of control | [3] 97 % of control | [4] 97 % of control | [5] 95 % of control | [6] 97 % of control

CCC(=O)Nc1cc(Cl)ccc1C
inactive: [1] 98 % of control | [2] 102 % of control | [3] 98 % of control | [4] 102 % of control | [5] 95 % of control | [6] 102 % of control

Cc1ccc(CS(=O)C(Cl)(Cl)c2ccc(C)cc2)cc1 (configuration not stated)
inactive: [7] 97 % of control | dose: 200.0 mg/kg/injection, schedule: Q04DX002 (ip), vehicle: Klucel (hydroxypropylcellulose) (HPC) 94 % of control | dose: 400.0 mg/kg/injection, schedule: Q04DX002 (ip), vehicle: Klucel (hydroxypropylcellulose) (HPC) 97 % of control

CC1(C)OC(=O)CC(=O)O1
inactive: [8] 94 % of control | [9] 100 % of control | [10] 91 % of control | [11] 94 % of control | [12] 93 % of control | [13] 91 % of control | [14] 87 % of control | [15] 93 % of control

Nc1nc2c(c(-c3ccc(Cl)cc3)n1)CN(CCCC(=O)O)C2=O
inactive: [16] 105 % of control | [10] 96 % of control | [17] 98 % of control | [13] 104 % of control | [18] 100 % of control | [15] 107 % of control

Cc1c([N+](=O)[O-])cc(C(C)(C)C)c(O)c1[N+](=O)[O-]
inactive: dose: 6.25 mg/kg/injection, schedule: Q01DX009 (ip), vehicle: saline with Tween-80 95 % of control | dose: 12.5 mg/kg/injection, schedule: Q01DX009 (ip), vehicle: saline with Tween-80 91 % of control | [19] 110 % of control | [20] 112 % of control | dose: 25.0 mg/kg/injection, schedule: Q04DX002 (ip), vehicle: saline with Tween-80 89 % of control

O=C1OC(c2cccc(Cl)c2)=N/C1=C\c1cccc2ccccc12
inactive: [1] 90 % of control | [3] 90 % of control | [5] 96 % of control

N#Cc1c(/N=C/c2cc(Cl)cc(Cl)c2O)sc2c1CCC2
inactive: [21] 95 % of control | [22] 113 % of control | [23] 91 % of control

NC(=O)N/N=C1\CC2CCC1C2Cl (configuration not stated)
inactive: [24] 100 % of control and 107 % of control | dose: 150.0 mg/kg/injection, schedule: Q01DX001 (ip), vehicle: saline 96 % of control | dose: 300.0 mg/kg/injection, schedule: Q01DX001 (ip), vehicle: saline 98 % of control and 88 % of control

NN=C1c2ccccc2C(F)(F)c2ccccc21
inactive: dose: 50.0 mg/kg/injection, schedule: Q01DX001 (ip), vehicle: Klucel (hydroxypropylcellulose) (HPC) 95 % of control | dose: 100.0 mg/kg/injection, schedule: Q01DX001 (ip), vehicle: Klucel (hydroxypropylcellulose) (HPC) 95 % of control

CCOC(=O)CCN(Cc1ccccc1)C(COC)C(=O)OCC (configuration not stated)
inactive: [16] 97 % of control | [17] 90 % of control | [18] 101 % of control

O=C1NC(=S)S/C1=C/C=C/c1ccccc1
inactive: [21] 95 % of control | [22] 87 % of control | [23] 98 % of control

CNc1nc(SCc2ccccc2)c2ncn(C3OC(CO)C(O)C3O)c2n1 (configuration not stated)
inactive: [25] 106 % of control | dose: 100.0 mg/kg/injection, schedule: Q01DX001 (ip), vehicle: carboxymethylcellulose (CMC) 95 % of control | dose: 200.0 mg/kg/injection, schedule: Q01DX001 (ip), vehicle: carboxymethylcellulose (CMC) 104 % of control

CC1N=C(N)NC(=O)C1c1ccc(Cl)cc1 (configuration not stated)
inactive: [8] 103 % of control | [11] 100 % of control

CN(C)C(C#N)C(=O)c1ccccc1 (configuration not stated)
inactive: [16] 97 % of control and 98 % of control | [18] 93 % of control

COc1ccc(-n2c(=O)c(N=Nc3ccccc3)c(O)n(-c3ccccc3OC)c2=S)cc1
inactive: dose: 12.5 mg/kg/injection, schedule: Q01DX001 (ip), vehicle: saline with Tween-80 101 % of control | dose: 25.0 mg/kg/injection, schedule: Q01DX001 (ip), vehicle: saline with Tween-80 90 % of control | dose: 50.0 mg/kg/injection, schedule: Q01DX001 (ip), vehicle: saline with Tween-80 94 % of control

CCOC(=O)C(=CN1CCCC1)C(=O)OCC
inactive: [9] 104 % of control | dose: 100.0 mg/kg/injection, schedule: Q04DX003 (ip), vehicle: saline with Tween-80 98 % of control | [12] 109 % of control | dose: 200.0 mg/kg/injection, schedule: Q04DX003 (ip), vehicle: saline with Tween-80 98 % of control | [14] 96 % of control | dose: 400.0 mg/kg/injection, schedule: Q04DX003 (ip), vehicle: saline with Tween-80 93 % of control

Cn1c(=O)c2n[se]nc2n(C)c1=O
inactive: dose: 3.12 mg/kg/injection, schedule: Q01DX009 (ip), vehicle: Klucel (hydroxypropylcellulose) (HPC) 91 % of control | dose: 3.12 mg/kg/injection, schedule: Q04DX002 (ip), vehicle: Klucel (hydroxypropylcellulose) (HPC) 102 % of control | dose: 6.25 mg/kg/injection, schedule: Q01DX009 (ip), vehicle: Klucel (hydroxypropylcellulose) (HPC) 94 % of control | dose: 6.25 mg/kg/injection, schedule: Q04DX002 (ip), vehicle: Klucel (hydroxypropylcellulose) (HPC) 105 % of control | [19] 108 % of control and 111 % of control | [20] 108 % of control

C=CCSC1=NC(=O)C(CCCC)C(=O)N1C (configuration not stated)
inactive: [24] 88 % of control

CC(=O)OC1CC(OC2C(O)CC(OC3C(O)CC(OC4CCC5(C)C(CCC6C5CCC5(C)C(C7=CC(=O)OC7)C(O)CC65O)C4)OC3C)OC2C)OC(C)C1OC1OC(CO)C(O)C(O)C1O (configuration not stated)
inactive: dose: 12.5 mg/kg/injection, schedule: Q04DX003 (ip), vehicle: Klucel (hydroxypropylcellulose) (HPC) 97 % of control | dose: 25.0 mg/kg/injection, schedule: Q01DX001 (ip), vehicle: carboxymethylcellulose (CMC) 111 % of control | dose: 25.0 mg/kg/injection, schedule: Q04DX003 (ip), vehicle: Klucel (hydroxypropylcellulose) (HPC) 103 % of control | [25] 105 % of control | dose: 50.0 mg/kg/injection, schedule: Q04DX003 (ip), vehicle: Klucel (hydroxypropylcellulose) (HPC) 112 % of control | [2] 97 % of control

CCCCCCCCCCN=C(N)CSSCC(N)=NCCCCCCCCCC
inactive: dose: 0.39 mg/kg/injection, schedule: Q04DX002 (ip), vehicle: saline with Tween-80 95 % of control | dose: 0.78 mg/kg/injection, schedule: Q04DX002 (ip), vehicle: saline with Tween-80 100 % of control | dose: 1.56 mg/kg/injection, schedule: Q04DX002 (ip), vehicle: saline with Tween-80 105 % of control

O=C1NC(=O)C([N+](=O)[O-])C(=O)N1
inactive: dose: 12.5 mg/kg/injection, schedule: Q04DX003 (ip), vehicle: saline 104 % of control | dose: 25.0 mg/kg/injection, schedule: Q04DX003 (ip), vehicle: saline 95 % of control | dose: 50.0 mg/kg/injection, schedule: Q04DX003 (ip), vehicle: saline 93 % of control | [13] 98 % of control | [15] 91 % of control

COC(=O)CCC(NC(=O)c1ccc(NCc2cnc3nc(N)n(C)c(=O)c3n2)cc1)C(=O)OC (configuration not stated)
inactive: dose: 100.0 mg/kg/injection, schedule: Q01DX001 (ip), vehicle: saline with Tween-80 106 % of control | dose: 200.0 mg/kg/injection, schedule: Q01DX001 (ip), vehicle: saline with Tween-80 104 % of control | dose: 400.0 mg/kg/injection, schedule: Q01DX001 (ip), vehicle: saline with Tween-80 101 % of control

N/C(N=P(c1ccccc1)(c1ccccc1)c1ccccc1)=N\S(=O)(=O)c1ccc([N+](=O)[O-])cc1
inactive: [20] 104 % of control | dose: 50.0 mg/kg/injection, schedule: Q04DX002 (ip), vehicle: Klucel (hydroxypropylcellulose) (HPC) 111 % of control | [7] 96 % of control

OCC/C=C/CCCO
inactive: [9] 97 % of control | [12] 96 % of control | [14] 94 % of control
